Measured values published in patent publication US6056958A, “Method of treatment of arterial and venous thromboembolic disorders” (Dupont Pharmaceuticals, priority 1997, dated 2000).
Where two headings read alike, the source gives them in different places. Non-standard residues stand in square brackets, D forms with d. Residues, ends and D or L forms follow the SMILES beside them. 3Amb = NCc1cccc(C(=O)O)c1

What was measured:
[1] = dog, in vivo
Description: Clotting Assay (Thrombin and Apothrombin Times)
Arterial blood samples were collected in 1/10th volume 3.8% sodium citrate and stored on ice for less than ten 10 minutes. Samples were centrifuged (10,000× g, 1.5 minutes) and plasma separated from cellular components. Clotting assays were performed within 30 minutes of collection in a fibrometer (BBL Bibrosystem) at 37° C. Thrombin time determinations were performed at a final thrombin concentration of 4 units/mL. Activated partial thromboplastin time (also referred to as apothrombin time) (APTT) was determined by incubating 0.1 mL plasma with 0.1 mL APTT reagent (Sigma Chemical) for three minutes, followed by addition of 0.1 mL of 25 mM CaCl2. Prothrombin time was determined by incubating 0.1 mL plasma with 0.1 mL thromboplastin, and clotting initiated by addition of 0.1 mL of 25 mM CaCl2. Assays were performed in duplicate.

[2] = dog, in vivo, iv
Description: (§1) A Simplate device (Organo Teknika) was applied to the surface of the tongue to make a uniform incision and blood was blotted with filter paper at 30 seconds intervals until bleeding completely stopped, with a 15 minutes cutoff time. Bleeding time was assessed before and at different intervals post-administration of test agent.

αv /β3 receptor = target: T1, αv /β3 receptor (Homo sapiens, UniProt P05106+P06756); assay: αv/β3-Biotinylated Vitronectin Binding Assay; conditions: for IC50: inhibition of vitronectin binding to purified αv/β3; for Relative Binding Affinity for αv /β3 Relative to GPIIb/IIIa: ratio of IC50 values (GPIIb/IIIa over αv/β3)
T1 construct: The αv /β3 receptor was isolated from human placental extracts prepared using octylglucoside; from tissue
T1 sequence (P06756 31-889 limits assumed): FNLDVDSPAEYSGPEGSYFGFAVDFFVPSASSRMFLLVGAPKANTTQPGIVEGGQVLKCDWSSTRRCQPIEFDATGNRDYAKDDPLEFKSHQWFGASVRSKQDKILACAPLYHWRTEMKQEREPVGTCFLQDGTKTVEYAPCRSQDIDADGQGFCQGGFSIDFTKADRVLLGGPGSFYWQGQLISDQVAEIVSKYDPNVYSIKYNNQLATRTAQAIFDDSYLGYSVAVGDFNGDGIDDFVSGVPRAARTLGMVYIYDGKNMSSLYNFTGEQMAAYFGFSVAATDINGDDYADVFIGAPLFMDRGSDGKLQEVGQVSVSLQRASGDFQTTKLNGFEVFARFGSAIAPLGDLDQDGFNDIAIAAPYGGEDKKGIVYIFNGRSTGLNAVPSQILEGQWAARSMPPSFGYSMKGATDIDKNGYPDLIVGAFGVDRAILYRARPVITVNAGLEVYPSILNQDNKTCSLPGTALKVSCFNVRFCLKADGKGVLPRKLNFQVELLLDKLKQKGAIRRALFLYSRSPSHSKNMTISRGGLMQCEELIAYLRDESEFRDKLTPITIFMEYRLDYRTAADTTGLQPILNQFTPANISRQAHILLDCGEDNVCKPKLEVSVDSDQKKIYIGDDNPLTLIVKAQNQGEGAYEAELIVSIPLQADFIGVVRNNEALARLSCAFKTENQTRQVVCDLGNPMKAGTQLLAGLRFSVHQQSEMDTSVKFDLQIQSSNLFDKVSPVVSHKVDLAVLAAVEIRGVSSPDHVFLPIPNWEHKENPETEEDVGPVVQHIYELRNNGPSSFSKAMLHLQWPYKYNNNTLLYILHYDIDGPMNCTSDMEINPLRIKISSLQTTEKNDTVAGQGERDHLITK
T1 sequence (P06756 891-1048 partner limits assumed): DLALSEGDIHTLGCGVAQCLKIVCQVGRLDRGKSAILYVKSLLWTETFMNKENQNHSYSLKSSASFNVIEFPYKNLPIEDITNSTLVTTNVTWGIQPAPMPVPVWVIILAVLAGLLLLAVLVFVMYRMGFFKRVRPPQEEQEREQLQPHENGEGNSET
T1 sequence (P05106 27-788): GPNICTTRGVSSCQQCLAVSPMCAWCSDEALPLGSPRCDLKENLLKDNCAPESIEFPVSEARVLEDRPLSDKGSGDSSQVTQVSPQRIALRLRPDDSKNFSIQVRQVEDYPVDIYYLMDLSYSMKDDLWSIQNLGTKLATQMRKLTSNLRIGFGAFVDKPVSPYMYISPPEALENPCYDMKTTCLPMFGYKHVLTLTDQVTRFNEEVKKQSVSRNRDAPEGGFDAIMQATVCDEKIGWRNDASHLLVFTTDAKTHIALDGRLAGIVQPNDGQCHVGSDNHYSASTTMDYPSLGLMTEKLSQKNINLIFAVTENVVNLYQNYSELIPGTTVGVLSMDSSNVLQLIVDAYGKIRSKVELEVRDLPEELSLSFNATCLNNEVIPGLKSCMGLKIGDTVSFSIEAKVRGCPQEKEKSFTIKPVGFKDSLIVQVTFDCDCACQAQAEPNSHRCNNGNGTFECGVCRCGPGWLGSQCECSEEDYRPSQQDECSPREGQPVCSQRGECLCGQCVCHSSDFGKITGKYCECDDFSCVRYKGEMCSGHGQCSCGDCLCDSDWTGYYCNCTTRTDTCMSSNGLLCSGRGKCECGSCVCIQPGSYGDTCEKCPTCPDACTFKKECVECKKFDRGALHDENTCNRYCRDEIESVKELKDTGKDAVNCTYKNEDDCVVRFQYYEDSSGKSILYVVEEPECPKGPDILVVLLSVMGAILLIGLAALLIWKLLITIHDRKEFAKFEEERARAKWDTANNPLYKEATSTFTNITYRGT
Description: Compounds may be tested for their ability to block binding of vitronectin to the αv /β3 receptor and to block the binding of fibrinogen to GPIIb/IIIa receptor in the αv /β3 -Biotinylated Vitronectin Binding Assay and GPIIb/IIIa Receptor-Biotinylated Fibrinogen Binding Assay described below.
αv /β3 -Biotinylated Vitronectin Binding Assay
The αv /β3 receptor was isolated from human placental extracts prepared using octylglucoside. The extract was passed over an anti-αv /β3 monoclonal antibody (LM609) affinity column (prepared using LM609 and Affigel 10). The column was subsequently washed extensively at pH 7 and pH 4.5 followed by elution at pH 3. The resulting sample was concentrated by wheat germ agglutinin chromatography to provide a αv /β3 -containing sample which gave two bands on SDS-PAGE which were confirmed as αv /β3 by western blotting.
The affinity purified αv /β3 protein as described above was diluted at different levels and plated to 96 well plates (about 15 ng of αv /β3 protein per well). ELISA detection of αv /β3 -bound biotinylated vitronectin was performed as described below using fixed concentration of biotinylated vitronectin (approximately 80 nM/well). This αv /β3 receptor preparation contains the αv /β3 with no detectable levels of αv /β5 according to the gel and according to effects of blocking antibodies for the αv /β3 or αv /β5 in the ELISA.
A submaximal concentration of biotinylated vitronectin was selected based on concentration response curves with fixed αv /β3 receptor concentration and variable concentrations of biotinylated vitronectin.
The purified αv /β3 receptor is diluted with coating buffer (20 mM Tris HCl, 150 mM NaCl, 2.0 mM CaCl2, 1.0 mM MgCl2.6H2 O, 1.0 mM MnCl2.4H2 O) and coated (100 μL/well) on Costar (3590) high capacity 96-well plates overnight at 4° C. The coating solution is discarded and the plates washed once with blocking/binding buffer (B/B buffer: 50 mM Tris HCl, 100 mM NaCl, 2.0 mM CaCl2, 1.0 mM MgCl2.6H2 O, 1.0 mM MnCl2.4H2 O). The plate-immobilized αv /β3 receptor is then blocked (200 μl/well) with 3.5% BSA in B/B buffer for 2 hours at room temperature. After washing once with 1.0% BSA in B/B buffer, biotinylated vitronectin (100 μL) and either test compound (inhibitor) (11 μL) or B/B buffer w/1.0% BSA (11 μL) is added to each well. The plates are incubated 2 hours at room temperature. The plates are washed twice with B/B buffer and incubated 1 hour at room temperature with anti-biotin alkaline phosphatase (100 μL/well) in B/B buffer containing 1.0% BSA. The plates are washed twice with B/B buffer and alkaline phosphatase substrate (100 μL) is added. Color is developed at room temperature. Color development is stopped by addition of 2N NaOH (25 μL/well) and absorbance is read at 405 nm.
The inhibitory binding constant (Ki) of test agents 30 may be calculated under this assay system using Michaelis-Menten analysis. The IC50 is the concentration of test substance needed to block 50% of the vitronectin binding to the αv /β3 receptor. The IC50 for the inhibition of binding of vitronectin to the αv /β3 receptor was determined based on time averaged values for the inhibition of vitronectin binding. Thus, the inhibition of vitronectin binding for each concentration of test compound was measured every 30 seconds over a 2 hour period and the average value of inhibition of vitronectin binding over such 2 hour period was used for the determination of the IC50.

[3] = test system: dog thrombosis model (carotid artery, femoral artery, femoral vein); assay: Carotid, Femoral Artery and Femoral Vein Thrombosis in Dogs (Electrolytic Injury Model); assay type: in vivo; conditions: for Incidence of Occlusion / Time to Occlusion / Blood Flow, Basal / Blood Flow, End: dog carotid artery; for Incidence of Occlusion: saline 44/44; for Time to Occlusion: saline 93 ±30.4; for Blood Flow, End: saline 0; for Thrombus Weight (wet, mg), left femoral vein / Thrombus Weight (wet, mg), left carotid artery: dog, P<0.05
Description: Carotid, Femoral Artery and Femoral Vein Thrombosis In Dogs (Electrolytic Injury Model)
The thrombosis model used in this study is a modification of the one described by Rote et al., J. Cardiovascular Pharmacolgy, 1993, 23:194-202. The experimental procedure provides the formation of a platelet rich intravascular thrombus at the site of the electrolytically-induced lesion in the arterial side. The femoral artery and carotid artery responses to the electrolytic injury are similar to that observed in the canine coronary artery in which intimal wall injury secondary to application of a direct anodal current leads to platelet adherence with the resultant occlusive thrombus formation (Rote et al., J. Cardiovascular Pharmacolgy, 1993, 23:194-202; Mousa et al., Circulation, 1994, 89:3-12). Animals were instrumented and a 20-30 mm segment of the femoral or carotid arteries were exposed and freed from facia, and branches were tied. Anodal current was applied using an intravascular electrode Penetration of the vessel wall by the electrode was facilitated by attaching the tip of a 23 gauge hypodermic needle to the uninsulated part of the electrode. Each intra-arterial electrode was connected to the positive pole (anodal) of a dual channel stimulator (Ni-Cad battery, 9 volts connected to 250,000 Ohm potentiometer in series). The cathode was connected to a distant subcutaneous site. The current delivered to the arterial wall was monitored continuously and maintained at 200 μA. Proper positioning of the electrode in the artery was confirmed by visual inspection at the end of each experiment. In all experiments the anodal current was applied for a maximum period of 3 hours. Arterial flow was monitored throughout the experiment by placing a doppler flow probe connected to a flow meter around the distal portion of the vessel segment. Similar procedures were applied to the femoral vein. […]

[4] = Bleeding Time in anesthetized dogs (tongue incision); conditions: dog, IV, saline 3-5
Description: as §1

[5] = 0.1 mg/kg IV bolus + 0.1 mg/kg IV infusion 3 hr
[6] = 0.1 mg/kg IV bolus + 0.4 mg/kg IV infusion 3 hr

N=C(N)NCCC[C@@H]1NC(=O)[C@@H]2CCCN2C(=O)c2cccc(c2)CNC(=O)[C@H](CC(=O)O)NC(=O)CNC1=O [Compound B, cyclo-(Pro-Arg-Gly-Asp-Mamb)] (cyclo(RGD[3Amb]P))
effect on apothrombin time or thrombin time [1]: no effect on apothrombin time or thrombin time
Bleeding Time ([2]; 1 mg/kg): 3 to 4 min
Bleeding Time ([2]; 3 mg/kg): 3 to 4 min
Bleeding Time ([2]; 10 mg/kg): 3 to 4 min
IC50 (αv /β3 receptor): 0.7 nM
Relative Binding Affinity for αv /β3 Relative to GPIIb/IIIa (αv /β3 receptor): 2171

C[C@@H]1NC(=O)c2cccc(c2)CNC(=O)[C@H](CC(=O)O)NC(=O)CNC(=O)[C@H](CCCNC(=N)N)NC1=O [Compound A, cyclo-(Ala-Arg-Gly-Asp-Mamb)] (cyclo(RGD[3Amb]A))
Incidence of Occlusion [3, 5]: 0/4
Time to Occlusion [3, 5]: > 180 min
Blood Flow, Basal ([3]; 0.1 mg/kg IV bolus + 0.1 mg/kg IV infusion 3 hr, spread ±4.7): 29.4 cm/s
Blood Flow, End ([3]; 0.1 mg/kg IV bolus + 0.1 mg/kg IV infusion 3 hr, spread ±11): 16.3 cm/s
Incidence of Occlusion [3, 6]: 0/4
Time to Occlusion [3, 6]: > 180 min
Blood Flow, Basal ([3]; 0.1 mg/kg IV bolus + 0.4 mg/kg IV infusion 3 hr, spread ±2.7): 30.2 cm/s
Blood Flow, End ([3]; 0.1 mg/kg IV bolus + 0.4 mg/kg IV infusion 3 hr, spread ±8.1): 23.8 cm/s
Cyclic Flow Rate (frequency/hr) ([3]; dog femoral artery, 0.1 mg/kg IV bolus + 0.1 mg/kg IV infusion 3 hr, n=4, mean ± SD, P<0.01, saline 8 ± 5.5): 0.5 ± 0.4 frequency/hr
Thrombus Weight (wet, mg), left femoral vein ([3]; 0.1 mg/kg IV bolus + 0.4 mg/kg infusion 3 hr, n=4, mean ± SD, saline 18 ± 5): 2 ± 1 mg
Thrombus Weight (wet, mg), left carotid artery ([3]; 0.1 mg/kg IV bolus + 0.4 mg/kg infusion 3 hr, n=4, mean ± SD, saline 53 ± 4): 13 ± 2 mg
Thrombus Weight (wet, mg), left carotid artery ([3]; 1 mg/kg IV bolus, n=3, 200 μA, mean ± SD, saline right carotid 51 ± 4): 14 ± 4 mg
Thrombus Weight (wet, mg), left femoral vein ([3]; 1 mg/kg IV bolus, n=3, 200 μA, mean ± SD, saline right femoral vein 18 ± 5): 4 ± 3 mg
Bleeding Time ([4]; 1 mg/kg): 3 to 4 min
Bleeding Time ([4]; 3 mg/kg): 3 to 4 min
Bleeding Time ([4]; 10 mg/kg): 5 to 6 min
IC50 (αv /β3 receptor): 3.8 nM
Relative Binding Affinity for αv /β3 Relative to GPIIb/IIIa (αv /β3 receptor): 107
